Assays:
[1] = system: sugar beet; experiment: Test B pre/postemergence sugar beet; type: in vivo, Beta vulgaris
Method in brief: (§1)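 Herbicidal effect was estimated by eye on a ten-point control scale after plants spent twelve to sixteen days in a greenhouse following soil or foliar treatment. Foliar sprays targeted plants at one to four leaves; all doses were formulated in a non-phytotoxic solvent with surfactant.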

[2] = system: winter barley; experiment: Test E winter barley; type: in vivo, Hordeum vulgare; settings: Preemergence
[3] = system: Italian ryegrass; experiment: Test E Italian ryegrass; type: in vivo, Lolium multiflorum; settings: Preemergence
[4] = system: surinam grass; experiment: Test B pre/postemergence surinam grass; type: in vivo, Brachiaria decumbens
Method in brief: as §1

[5] = system: winter wheat; experiment: Test E winter wheat; type: in vivo, Triticum aestivum; settings: Postemergence
Method in brief: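 Postemergence: 60:40 sandy loam/greenhouse potting mix, 1- to 4-leaf stage. Formulation: solvent plus surfactant. Assessment: visual comparison with untreated controls at ~21–28 days.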

[6] = system: winter wheat; experiment: Test E winter wheat; type: in vivo, Triticum aestivum; settings: Preemergence
[7] = system: blackgrass; experiment: Test E blackgrass; type: in vivo, Alopecurus myosuroides; settings: Preemergence
[8] = system: blackgrass; experiment: Test B pre/postemergence blackgrass; type: in vivo, Alopecurus myosuroides
Method in brief: as §1

[9] = system: green foxtail; experiment: Test E green foxtail; type: in vivo, Setaria viridis; settings: Preemergence
[10] = system: wild oat; experiment: Test E wild oat; type: in vivo, Avena fatua; settings: Preemergence
[11] = system: bamyardgrass; experiment: Test B flood test barnyardgrass; type: in vivo, Echinochloa crus-galli
Method in brief: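 Read-out is a visual response score from 0 (no effect) to 10 (complete control), assigned by comparison with untreated controls. Treatment was applied at the 2-leaf stage, and plants stayed in the greenhouse for twelve to sixteen days before scoring.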

[12] = Preemergence, Rate 62 g/ha, scale of 0 to 10 where 0 is no effect and 10 is complete control
[13] = Preemergence, Rate 250 g/ha, scale of 0 to 10 where 0 is no effect and 10 is complete control
[14] = Preemergence, Rate 500 g/ha, scale of 0 to 10 where 0 is no effect and 10 is complete control
[15] = Rate 62 g/ha, Postemergence, scale 0 to 10 (0 no effect, 10 complete control)
[16] = Rate 125 g/ha, Postemergence, scale of 0 to 10 where 0 is no effect and 10 is complete control
[17] = Rate 250 g/ha, Postemergence, scale of 0 to 10 where 0 is no effect and 10 is complete control
[18] = Rate 250 g/ha, 0 to 100 scale, 0 no effect, 100 complete control
[19] = Rate 500 g/ha, 0 to 100 scale (0 no effect, 100 complete control)
[20] = Rate 1000 g/ha, 0 to 100 scale, 0 no effect, 100 complete control
[21] = Rate 500 g/ha, Postemergence, scale 0 to 10, 0 no effect, 10 complete control
[22] = Rate 250 g/ha, 0 to 100 scale, 0 is no effect, 100 is complete control
[23] = Rate 1000 g/ha, 0 to 100 scale where 0 is no effect and 100 is complete control
[24] = Rate 500 g/ha, 0 to 100 scale, 0 is no effect, 100 is complete control
[25] = Rate 125 g/ha, Pre-emergence, flood test species, scale 0 to 10 where 0 is no effect and 10 is complete control
[26] = Rate 250 g/ha, Pre-emergence, flood-test species, scale 0 to 10, 0 is no effect, 10 is complete control
[27] = Rate 500 g/ha, Pre-emergence, flood test species, scale 0 to 10 (0 no effect, 10 complete control)
[28] = Postemergence, Rate 125 g/ha, scale 0 to 10, 0 is no effect, 10 is complete control

## CCN(C(=O)n1oc(=O)n(C(C)C)c1=O)C1CCCCC1 [Compound 309]
[1]; [12]
  Sugarbeets plant response rating: 0
[1]; Preemergence, Rate 125 g/ha
  Sugarbeets plant response rating (0 to 10 scale): 0
[1]; [13]
  Sugarbeets plant response rating: 0
[1]; [14]
  Sugarbeets plant response rating: 0
[1]; [15]
  Sugarbeets plant response rating: 0
[1]; [16]
  Sugarbeets plant response rating: 0
[1]; [17]
  Plant response rating, Sugarbeets: 0
[2]; [18]
  Plant response rating, Barley (winter): 50
[2]; [19]
  Plant response rating, Barley (winter): 20
[2]; [20]
  Plant response rating, Barley (winter): 70
[3]; Rate 250 g/ha, 0 to 100 scale
  Plant response rating, I. Ryegrass: 50
[3]; [19]
  Plant response rating, I. Ryegrass: 60
[3]; [20]
  Plant response rating, I. Ryegrass: 70
[4]; [12]
  B. signalgrass plant response rating: 0
[4]; Preemergence, Rate 125 g/ha
  B. signalgrass plant response rating (0 to 10 scale, 0 is no effect, 10 is complete control): 0
[4]; [13]
  B. signalgrass plant response rating: 0
[4]; [14]
  B. signalgrass plant response rating: 2
[4]; [15]
  B. signalgrass plant response rating: 0
[4]; [16]
  B. signalgrass plant response rating: 0
[4]; [17]
  Plant response rating, B. signalgrass: 0
[4]; [21]
  B. signalgrass plant response rating: 0
[5]; [22]
  Plant response rating, Wheat (winter): 50
[5]; [23]
  Plant response rating, Wheat (winter): 80
[5]; [24]
  Plant response rating, Wheat (winter): 70
[6]; Rate 250 g/ha, 0 to 100 scale
  Plant response rating, Wheat (winter): 70
[6]; [19]
  Plant response rating, Wheat (winter): 65
[6]; [20]
  Plant response rating, Wheat (winter): 70
[7]; Rate 250 g/ha, 0 to 100 scale
  Plant response rating, Blackgrass: 60
[7]; [19]
  Plant response rating, Blackgrass: 60
[7]; [20]
  Plant response rating, Blackgrass: 75
[8]; [12]
  Blackgrass plant response rating: 0
[8]; Preemergence, Rate 125 g/ha
  Blackgrass plant response rating (0 to 10 scale): 0
[8]; [13]
  Blackgrass plant response rating: 2
[8]; [14]
  Blackgrass plant response rating: 6
[8]; [15]
  Blackgrass plant response rating: 0
[8]; [16]
  Blackgrass plant response rating: 0
[8]; [17]
  Plant response rating, Blackgrass: 0
[8]; [21]
  Blackgrass plant response rating: 2
[9]; Rate 250 g/ha, 0 to 100 scale
  Plant response rating, Green foxtail: 65
[9]; [19]
  Plant response rating, Green foxtail: 100
[9]; [20]
  Plant response rating, Green foxtail: 100
[10]; Rate 250 g/ha, 0 to 100 scale
  Plant response rating, Wild oat: 50
[10]; [19]
  Plant response rating, Wild oat: 50
[10]; [20]
  Plant response rating, Wild oat: 70
[11]; Pre-emergence, Rate 1000 g/ha, scale 0 to 10 (0 no effect, 10 complete control)
  Barnyardgrass plant response rating: 0
[11]; [25]
  Barnyardgrass plant response rating: 0
[11]; [26]
  Barnyardgrass plant response rating: 0
[11]; [27]
  Barnyardgrass plant response rating: 0

## CC(C)N(C(=O)n1oc(=O)n(C2CC3CCC2C3)c1=O)c1ccccc1 (stereo not shown) [Compound 328]
[1]; [28]
  Plant response rating, Sugarbeets: 0
[1]; [12]
  Sugarbeets plant response rating: 0
[1]; Preemergence, Rate 125 g/ha
  Sugarbeets plant response rating (0 to 10 scale): 0
[1]; [13]
  Sugarbeets plant response rating: 0
[1]; [14]
  Sugarbeets plant response rating: 0
[1]; [15]
  Sugarbeets plant response rating: 0
[1]; [17]
  Plant response rating, Sugarbeets: 0
[1]; [21]
  Plant response rating, Sugarbeets: 0
[2]; [18]
  Plant response rating, Barley (winter): 40
[2]; [19]
  Plant response rating, Barley (winter): 50
[2]; [20]
  Plant response rating, Barley (winter): 70
[3]; Rate 250 g/ha, 0 to 100 scale
  Plant response rating, I. Ryegrass: 65
[3]; [19]
  Plant response rating, I. Ryegrass: 60
[3]; [20]
  Plant response rating, I. Ryegrass: 70
[4]; [28]
  Plant response rating, B. signalgrass: 0
[4]; [12]
  B. signalgrass plant response rating: 0
[4]; Preemergence, Rate 125 g/ha
  B. signalgrass plant response rating (0 to 10 scale, 0 is no effect, 10 is complete control): 0
[4]; [13]
  B. signalgrass plant response rating: 0
[4]; [14]
  B. signalgrass plant response rating: 5
[4]; [15]
  B. signalgrass plant response rating: 0
[4]; [17]
  Plant response rating, B. signalgrass: 0
[4]; [21]
  Plant response rating, B. signalgrass: 0
[5]; [22]
  Plant response rating, Wheat (winter): 65
[5]; [23]
  Plant response rating, Wheat (winter): 80
[5]; [24]
  Plant response rating, Wheat (winter): 70
[6]; Rate 250 g/ha, 0 to 100 scale
  Plant response rating, Wheat (winter): 40
[6]; [19]
  Plant response rating, Wheat (winter): 70
[6]; [20]
  Plant response rating, Wheat (winter): 70
[7]; Rate 250 g/ha, 0 to 100 scale
  Plant response rating, Blackgrass: 50
[7]; [19]
  Plant response rating, Blackgrass: 50
[7]; [20]
  Plant response rating, Blackgrass: 40
[8]; [28]
  Plant response rating, Blackgrass: 1
[8]; [12]
  Blackgrass plant response rating: 0
[8]; Preemergence, Rate 125 g/ha
  Blackgrass plant response rating (0 to 10 scale): 0
[8]; [13]
  Blackgrass plant response rating: 4
[8]; [14]
  Blackgrass plant response rating: 7
[8]; [15]
  Blackgrass plant response rating: 0
[8]; [17]
  Plant response rating, Blackgrass: 5
[8]; [21]
  Plant response rating, Blackgrass: 5
[9]; Rate 250 g/ha, 0 to 100 scale
  Plant response rating, Green foxtail: 100
[9]; [19]
  Plant response rating, Green foxtail: 85
[9]; [20]
  Plant response rating, Green foxtail: 100
[10]; Rate 250 g/ha, 0 to 100 scale
  Plant response rating, Wild oat: 70
[10]; [19]
  Plant response rating, Wild oat: 50
[10]; [20]
  Plant response rating, Wild oat: 60
[11]; Rate 62 g/ha, headed Pre-emergence (flood test species), scale 0 to 10 (0 no effect, 10 complete control)
  Barnyardgrass plant response rating: 0
[11]; [25]
  Barnyardgrass plant response rating: 0
[11]; [26]
  Barnyardgrass plant response rating: 0
[11]; [27]
  Barnyardgrass plant response rating: 0

— patent US6737383B1, “Herbicidal oxadiazolidines” (priority 1999, dated 2004)
